Results published in publication PMC8752837, “Structural basis of BAK activation in mitochondrial apoptosis initiation” (Nature Communications, 2022).
Where two headings read alike, the source gives them in different places. Marks after values point to notes of the source that are not given here.

Legend:
Human BAK-∆TM-His6 (BAK) = molecular target: T1, Human BAK-∆TM-His6 (BAK) (Homo sapiens, UniProt Q16611); experiment: Liposome permeabilization assay (ANTS/DPX dye release from LUVs): activation of WT BAK by BH3 peptides;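 for AUC for Experiment-2 (Mean): traces normalized between buffer minimum and 3% CHAPS maximum fluorescence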;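 for AUC for Experiment-3 (Mean): traces normalized between buffer minimum and 3% CHAPS maximum fluorescence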; format: biochemical; design: AUC for Experiment-2 (Mean) / AUC for Experiment-3 (Mean) / AUC for Experiment-1 (Mean):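 traces normalized between buffer minimum and 3% CHAPS maximum fluorescence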; conditions: for AUC for Experiment-1 (Mean) / AUC for Experiment-2 (Mean) / AUC for Experiment-3 (Mean): AUC 0-88 mins of liposome permeabilization; for AUC for Experiment-1 (Mean): Experiment-1, mean of N replicates; for AUC for Experiment-2 (Mean): Experiment-2, mean of N replicates; for AUC for Experiment-3 (Mean): Experiment-3, mean of N replicates; for EC50: Fig. 4e, AUC vs peptide dose (Suppl. Fig. 6b), n = 2 experiments each of n = 3 technical replicates, read-out: EC50 LP; for EC50 / direct BAK activation compared to WT BID BH3: 50 nM BAK; for direct BAK activation compared to WT BID BH3: liposome permeabilization, Fig. 4c, e
T1 construct: C-terminus truncated recombinant human BAK containing C-terminal 6× histidine tag (MEAS-BAK); made in house; host or cells: E. coli T7 Express pLac I/Y
T1 sequence (Q16611 1-186 limits assumed): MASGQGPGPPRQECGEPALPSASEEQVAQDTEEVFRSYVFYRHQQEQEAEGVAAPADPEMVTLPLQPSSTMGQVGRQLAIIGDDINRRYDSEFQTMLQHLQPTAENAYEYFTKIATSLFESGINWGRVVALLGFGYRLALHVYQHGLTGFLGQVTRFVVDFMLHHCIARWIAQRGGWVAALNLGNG
Protocol: We performed liposome permeabilization assays as previously described[43]–[46]. […] We mixed the lipid film in ANTS/DPX solution by vortexing and sonication (~15 min) followed by extrusion through polycarbonate membrane of 2 μm pore size (Avanti Polar lipids) to generate homogenous large unilamellar vesicles (LUVs). We separated LUVs from free ANTS/DPX by S500 size exclusion chromatography and stored them at 4 °C in the dark. We prepared peptide and protein dilutions in 96-well black flat bottom plates (Costar) kept on ice. […] We quantified liposome permabilization by integrating area under curve (AUC) of normalized traces based on the Simpson’s equation, and analyzed that data in Excel and GraphPad Prism. AUC measurements reflect the kinetic and extent of liposome permeabilization and provide quantitative means for comparison between different experimental conditions (e.g., BAK mutants with gross or partial variation in activity).

GST-BAK = molecular target: T2, GST-BAK (Homo sapiens, UniProt Q16611); experiment: Competitive fluorescence polarization assay (displacement of BID BH3 SAHB-F); format: binding
T2 construct: made in house
T2 sequence (Q16611 1-211): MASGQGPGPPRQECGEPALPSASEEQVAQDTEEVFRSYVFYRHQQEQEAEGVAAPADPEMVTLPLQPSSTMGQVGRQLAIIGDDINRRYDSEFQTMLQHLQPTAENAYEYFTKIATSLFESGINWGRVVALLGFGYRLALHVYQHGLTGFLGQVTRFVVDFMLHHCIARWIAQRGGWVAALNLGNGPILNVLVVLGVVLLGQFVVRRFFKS
From the text: We also tested the monosubstituted peptides in competitive fluorescence polarization (FP) binding assays, which measure displacement from GST-BAK of BID BH3 stabilized alpha helix of BCL-2 proteins (SAHB) C-terminally tagged with fluorescein and thus informs on peptide binding affinity.
We carried out fluorescence polarization assays, measuring the displacement of the fluorescent peptide BID BH3 SAHB-F from GST-BAK, in 384-well Greiner black polystyrene plates with flat bottom (Sigma-Aldrich). Master mix consisted of 50 mM Tris-HCl pH 7.5, 50 mM KCl, 0.1 mg/mL BSA, 2 mM DTT, 0.005% Tween-20, 10 nM BID BH3 SAHB-F, and 1 µM GST-BAK. We pin transferred peptides using Biomek FX (Beckman Coulter Life Sciences, IN) to achieve final concentration of 500−0.2 µM in 20 µL final volume. We gently centrifuged plates to remove air bubbles for 1 min at 1000 rpm, and incubated them for 60 min at RT. […] Free peptide controls in each plate consisted of only BID BH3 SAHB-F and bound peptide controls containing BID BH3 SAHB-F + GST-BAK. We derived Z’-values using the equation [1 − 3(stdev^L + stdev^H)]/(average^H − average^L), where L is the free peptide control and H is the bound peptide control. […] We processed and visualized data using the software Robust Investigation of Screening Experiments (RISE) developed in house in the Pipeline Pilot platform (Accelrys, v.8.5.0). We performed at least three independent dose-response experiments for each peptide. We estimated IC50 values in RISE and GraphPad Prism v.8.0a.

[1] = displacement of 10 nM BID BH3 SAHB-fluorescein from 1 µM GST-BAK, peptide 500−0.2 µM, 60 min RT, mean ± SD, n = 9 experiments, read-out: IC50 FP

Substance	AUC for Experiment-1 (Mean) (Human BAK-∆TM-His6 (BAK); 1 μM peptide + 50 nM BAK)	AUC for Experiment-2 (Mean) (Human BAK-∆TM-His6 (BAK); 1 μM peptide + 50 nM BAK)	AUC for Experiment-3 (Mean) (Human BAK-∆TM-His6 (BAK); 1 μM peptide + 50 nM BAK)	AUC for Experiment-1 (Mean) (Human BAK-∆TM-His6 (BAK); 50 μM peptide + 50 nM BAK)	AUC for Experiment-2 (Mean) (Human BAK-∆TM-His6 (BAK); 50 μM peptide + 50 nM BAK)	AUC for Experiment-3 (Mean) (Human BAK-∆TM-His6 (BAK); 50 μM peptide + 50 nM BAK)	EC50 (Human BAK-∆TM-His6 (BAK)) [nM]	direct BAK activation compared to WT BID BH3 (Human BAK-∆TM-His6 (BAK))	IC50 (GST-BAK; competitive FP, Experiment-1) [nM]	IC50 (GST-BAK; competitive FP, Experiment-2) [nM]	IC50 (GST-BAK; competitive FP, Experiment-3) [nM]	IC50 (GST-BAK; competitive FP, Experiment-4) [nM]	IC50 (GST-BAK; competitive FP, Experiment-5) [nM]	IC50 (GST-BAK; competitive FP, Experiment-6) [nM]	IC50 (GST-BAK; competitive FP, Experiment-7) [nM]	IC50 (GST-BAK; competitive FP, Experiment-8) [nM]	IC50 (GST-BAK; competitive FP, Experiment-9) [nM]	IC50 (GST-BAK; competitive FP, mean of the experiments (replicated 4-9 times), read-out: IC50 Mean) [nM]	IC50 (GST-BAK; [1]) [nM]
Ac-EDIIRNIARHWAQVGDSMDRSI-NH2 [W(2)]	4.9093	3.613	3.7546	2.3973	4.6314	0.7562*	1080 ± 453	less direct BAK activation compared to WT BID BH3											
Ac-EDIIRNIARHYAQVGDSMDRSI-NH2 [Y(2)]	4.2367	5.3994	3.7484	8.0372	6.4388	4.7986	1210 ± 696	less direct BAK activation compared to WT BID BH3											
Ac-EDIIRNIARHLAQMGDSMDRSI-NH2 [M(3)]	20.936	21.86	19.004	18.852	17.743	12.625	114 ± 22.5	gain in direct BAK activation compared to WT BID BH3	5395	4243	5717	4044	4590	4390	3925	4319	4861	4600	
Ac-EDIIRNIARHLAQVGDSWDRSI-NH2 [W(4)]	16.565	21.49	16.942	21.822	26.263	21.192	264 ± 9.1	gain in direct BAK activation compared to WT BID BH3											11500 ± 7500
Ac-EDIIRNIARHFAQVGDSMDRSI-NH2 [F(2)]	10.629	6.9165	10.58	9.2417	6.0451	8.2141	290 ± 42.6												
Ac-EDIIRNIARHMAQVGDSMDRSI-NH2 [M(2)]	8.056	3.548	5.055	8.1746	3.897	7.008	366 ± 89.2												
Ac-EDWIRNIARHLAQVGDSMDRSI-NH2 [W(0)]	14.3256	13.2515	14.8765	13.3871	11.7489	12.1647	365 ± 22.8												10800 ± 5500
Ac-EDIWRNIARHLAQVGDSMDRSI-NH2 [W(0')]	15.025	10.6297	8.405	12.2448	5.78*	12.8163	242 ± 66.3												27400 ± 16400
Ac-EDIIRNIARHLAQYGDSMDRSI-NH2 [Y(3)]	14.1	10.652	12.187	18.672	10.496	13.717	372 ± 116												6200 ± 1500
Ac-EDIIRNIARHLAQVGDSFDRSI-NH2 [F(4)]	9.5438	9.663	8.9802	10.729	10.153	6.338	229 ± 11.1	less direct BAK activation compared to WT BID BH3											11900 ± 3700
Ac-EDIIRNWARHLAQVGDSMDRSI-NH2 [W(1)]	5.265	7.491	5.218	7.873	8.991	6.529	1700 ± 446	less direct BAK activation compared to WT BID BH3											
Ac-EDIIRNIARHLAQFGDSMDRSI-NH2 [F(3)]	18.713	17.421	16.388	17.267	18.39	17.889	110 ± 16.1	gain in direct BAK activation compared to WT BID BH3											11300 ± 3900
